Experimental data as given in PubChem BioAssay AID1259407 (Chemical Carcinogenesis Research Information System (CCRIS), 2018).
The source made the active and inactive calls. How the calls were made is not given here.

Tested on: CCRIS mutagenicity, Ames/micronucleus/aberration tests
Experiment: CCRIS mutagenicity studies
[1] = Test System: AMES SALMONELLA TYPHIMURIUM, Strain/Indicator: TA98, Metabolic Activation: HAMSTER, LIVER, S-9, AROCLOR 1254 (10%), Method: PREINCUBATION
[2] = Test System: AMES SALMONELLA TYPHIMURIUM, Strain/Indicator: TA98, Metabolic Activation: NONE, Method: PREINCUBATION
[3] = Test System: AMES SALMONELLA TYPHIMURIUM, Strain/Indicator: TA98, Metabolic Activation: RAT, LIVER, S-9, AROCLOR 1254 (10%), Method: PREINCUBATION
[4] = Test System: AMES SALMONELLA TYPHIMURIUM, Strain/Indicator: TA100, Metabolic Activation: HAMSTER, LIVER, S-9, AROCLOR 1254 (10%), Method: PREINCUBATION
[5] = Test System: AMES SALMONELLA TYPHIMURIUM, Strain/Indicator: TA100, Metabolic Activation: NONE, Method: PREINCUBATION
[6] = Test System: AMES SALMONELLA TYPHIMURIUM, Strain/Indicator: TA100, Metabolic Activation: RAT, LIVER, S-9, AROCLOR 1254 (10%), Method: PREINCUBATION
[7] = Test System: AMES SALMONELLA TYPHIMURIUM, Strain/Indicator: TA1535, Metabolic Activation: HAMSTER, LIVER, S-9, AROCLOR 1254 (10%), Method: PREINCUBATION
[8] = Test System: AMES SALMONELLA TYPHIMURIUM, Strain/Indicator: TA1535, Metabolic Activation: NONE, Method: PREINCUBATION
[9] = Test System: AMES SALMONELLA TYPHIMURIUM, Strain/Indicator: TA1535, Metabolic Activation: RAT, LIVER, S-9, AROCLOR 1254 (10%), Method: PREINCUBATION

With COC(C)(C)C the mutagenic call (Test System: AMES SALMONELLA TYPHIMURIUM, Strain/Indicator: TA98, Metabolic Activation: NONE) was “inactive; negative”, the mutagenic call (Test System: AMES SALMONELLA TYPHIMURIUM, Strain/Indicator: TA98, Metabolic Activation: NONE, Method: MICROSUSPENSION) was “inactive; negative” and the mutagenic call (Test System: AMES SALMONELLA TYPHIMURIUM, Strain/Indicator: TA98, Metabolic Activation: NONE, Method: STANDARD PLATE) was “inactive; negative”. The mutagenic call (Test System: AMES SALMONELLA TYPHIMURIUM, Strain/Indicator: TA98, Metabolic Activation: RAT LIVER S-9) was “inactive; negative”, the mutagenic call (Test System: AMES SALMONELLA TYPHIMURIUM, Strain/Indicator: TA98, Metabolic Activation: RAT LIVER S-9, AROCLOR 1254, Method: STANDARD PLATE) was “inactive; negative” and the mutagenic call (Test System: AMES SALMONELLA TYPHIMURIUM, Strain/Indicator: TA98, Metabolic Activation: RAT, LIVER, S-9, AROCLOR 1254, Method: MICROSUSPENSION) was “inactive; negative”. For the same molecule, the mutagenic call (Test System: AMES SALMONELLA TYPHIMURIUM, Strain/Indicator: TA100, Metabolic Activation: NONE) was “inactive; negative”, the mutagenic call (Test System: AMES SALMONELLA TYPHIMURIUM, Strain/Indicator: TA100, Metabolic Activation: NONE, Method: MICROSUSPENSION) was “inactive; negative” and the mutagenic call (Test System: AMES SALMONELLA TYPHIMURIUM, Strain/Indicator: TA100, Metabolic Activation: NONE, Method: STANDARD PLATE) was “inactive; negative”. For the same molecule, the mutagenic call (Test System: AMES SALMONELLA TYPHIMURIUM, Strain/Indicator: TA100, Metabolic Activation: RAT LIVER S-9) was “inactive; negative”, the mutagenic call (Test System: AMES SALMONELLA TYPHIMURIUM, Strain/Indicator: TA100, Metabolic Activation: RAT LIVER S-9, AROCLOR 1254, Method: STANDARD PLATE) was “inactive; negative” and the mutagenic call (Test System: AMES SALMONELLA TYPHIMURIUM, Strain/Indicator: TA100, Metabolic Activation: RAT, LIVER, S-9, AROCLOR 1254, Method: MICROSUSPENSION) was “inactive; negative”. For the same molecule, the mutagenic call (Test System: AMES SALMONELLA TYPHIMURIUM, Strain/Indicator: TA102, Metabolic Activation: NONE, Method: STANDARD PLATE) was “inactive; negative”, the mutagenic call (Test System: AMES SALMONELLA TYPHIMURIUM, Strain/Indicator: TA102, Metabolic Activation: RAT, LIVER, S-9, PHENOBARBITAL-BETA-NAPHTHOFLAVONE, Method: STANDARD PLATE) was “inactive; negative” and the mutagenic call (Test System: AMES SALMONELLA TYPHIMURIUM, Strain/Indicator: TA104, Metabolic Activation: NONE, Method: MICROSUSPENSION) was “inactive; negative”. For the same molecule, the mutagenic call (Test System: AMES SALMONELLA TYPHIMURIUM, Strain/Indicator: TA104, Metabolic Activation: RAT, LIVER, S-9, AROCLOR 1254, Method: MICROSUSPENSION) was “inactive; negative”, the mutagenic call (Test System: AMES SALMONELLA TYPHIMURIUM, Strain/Indicator: TA1535, Metabolic Activation: NONE, Method: MICROSUSPENSION) was “inactive; negative” and the mutagenic call (Test System: AMES SALMONELLA TYPHIMURIUM, Strain/Indicator: TA1535, Metabolic Activation: RAT, LIVER, S-9, AROCLOR 1254, Method: MICROSUSPENSION) was “inactive; negative”. The mutagenic call (Test System: Ames Salmonella typhimurium, Strain/Indicator: TA98, Metabolic Activation: None, Method: Plate incorporation) was “inactive; negative”, the mutagenic call (Test System: Ames Salmonella typhimurium, Strain/Indicator: TA98, Metabolic Activation: None, Method: Preincubation) was “inactive; negative” and the mutagenic call (Test System: Ames Salmonella typhimurium, Strain/Indicator: TA98, Metabolic Activation: Rat, Liver, S-9, Method: Plate incorporation) was “inactive; negative”. The mutagenic call (Test System: Ames Salmonella typhimurium, Strain/Indicator: TA98, Metabolic Activation: Rat, Liver, S-9, Method: Preincubation) was “inactive; negative”, the mutagenic call (Test System: Ames Salmonella typhimurium, Strain/Indicator: TA100, Metabolic Activation: None, Method: Plate incorporation) was “inactive; negative” and the mutagenic call (Test System: Ames Salmonella typhimurium, Strain/Indicator: TA100, Metabolic Activation: None, Method: Preincubation) was “inactive; negative”. The mutagenic call (Test System: Ames Salmonella typhimurium, Strain/Indicator: TA100, Metabolic Activation: Rat, Liver, S-9, Method: Plate incorporation) was “inactive; negative”, the mutagenic call (Test System: Ames Salmonella typhimurium, Strain/Indicator: TA100, Metabolic Activation: Rat, Liver, S-9, Method: Preincubation) was “inactive; negative” and the mutagenic call (Test System: Ames Salmonella typhimurium, Strain/Indicator: YG1041, Metabolic Activation: None, Method: Plate incorporation) was “inactive; negative”. The mutagenic call (Test System: Ames Salmonella typhimurium, Strain/Indicator: YG1041, Metabolic Activation: None, Method: Preincubation) was “inactive; negative”, the mutagenic call (Test System: Ames Salmonella typhimurium, Strain/Indicator: YG1042, Metabolic Activation: None, Method: Plate incorporation) was “inactive; negative” and the mutagenic call (Test System: Ames Salmonella typhimurium, Strain/Indicator: YG1042, Metabolic Activation: None, Method: Preincubation) was “inactive; negative”. The mutagenic call (Test System: MOUSE LYMPHOMA, Strain/Indicator: L5178Y (TK+/TK-), Metabolic Activation: RAT, LIVER, S-9, AROCLOR 1254, Method: SUSPENSION/PLATE) was “active; positive”, the mutagenic call (Test System: MOUSE LYMPHOMA, Strain/Indicator: L5178Y (TK+/TK-), Method: SUSPENSION/PLATE) was “inactive; negative” and the mutagenic call (Test System: UDS MOUSE HEPATOCYTES, Strain/Indicator: THY INCORP, Metabolic Activation: NONE, Method: IN-VIVO-IN VITRO) was “inactive; negative”. The mutagenic call (Test System: UDS RAT HEPATOCYTES, Strain/Indicator: THYMIDINE INCORPORATION, Metabolic Activation: NONE, Method: LIQUID SCINTILLATION COUNTING) was “active; positive” and the mutagenic call (Test System: UDS RAT HEPATOCYTES, Strain/Indicator: THYMIDINE INCORPORATION, Metabolic Activation: RAT LIVER S-9, AROCLOR 1254, Method: LIQUID SCINTILLATION COUNTING) was “active; positive”.

O[C@H]([C@H](O)[C@@H](O)CBr)[C@H](O)CBr was tested, and the mutagenic call [1] was “inactive; negative”, the mutagenic call [2] was “inactive; negative” and the mutagenic call [3] was “inactive; negative”. The mutagenic call [4] was “active; positive”, the mutagenic call [5] was “active; positive” and the mutagenic call [6] was “active; positive”. For the same molecule, the mutagenic call [7] was “active; positive”, the mutagenic call [8] was “active; positive” and the mutagenic call [9] was “active; positive”. For the same molecule, the mutagenic call (Test System: AMES SALMONELLA TYPHIMURIUM, Strain/Indicator: TA1537, Metabolic Activation: HAMSTER, LIVER, S-9, AROCLOR 1254 (10%), Method: PREINCUBATION) was “inactive; negative”, the mutagenic call (Test System: AMES SALMONELLA TYPHIMURIUM, Strain/Indicator: TA1537, Metabolic Activation: NONE, Method: PREINCUBATION) was “inactive; negative” and the mutagenic call (Test System: AMES SALMONELLA TYPHIMURIUM, Strain/Indicator: TA1537, Metabolic Activation: RAT, LIVER, S-9, AROCLOR 1254 (10%), Method: PREINCUBATION) was “inactive; negative”.

For CC(Cl)(Cl)[N+](=O)[O-], the mutagenic call (Test System: AMES SALMONELLA TYPHIMURIUM, Strain/Indicator: TA97, Metabolic Activation: HAMSTER, LIVER, S-9, AROCLOR 1254 (10%), Method: PREINCUBATION) was “active; positive”, the mutagenic call (Test System: AMES SALMONELLA TYPHIMURIUM, Strain/Indicator: TA97, Metabolic Activation: NONE, Method: PREINCUBATION) was “active; positive” and the mutagenic call (Test System: AMES SALMONELLA TYPHIMURIUM, Strain/Indicator: TA97, Metabolic Activation: RAT, LIVER, S-9, AROCLOR 1254 (10%), Method: PREINCUBATION) was “active; positive”. For the same molecule, the mutagenic call [1] was “inactive; negative”, the mutagenic call [2] was “inactive; negative” and the mutagenic call [3] was “inactive; negative”. The mutagenic call [4] was “active; positive”, the mutagenic call [5] was “inactive; negative” and the mutagenic call [6] was “active; positive”. For the same molecule, the mutagenic call [7] was “inactive; negative”, the mutagenic call [8] was “inactive; negative” and the mutagenic call [9] was “inactive; negative”.
